Tests used:
[1] = tested on: glial cells: BV2 (microglia), C6 (astroglia), primary microglial and astroglial cultures; test: LPS-induced nitrite production in glial cultures (Griess); format: cell-based, mouse, rat; conditions: LPS 10 μg/mL, 24 h, ligands at 1 μM
Description: PD has been described in the same way. Therefore, we based our in vitro model of neuroinflammation on the use of two established glial cell lines, C6 and BV2, as well as primary glial cultures derived from the mouse cerebral cortex. […] When attaining semiconfluence, glial cells were seeded on 96-well plates at 3 × 10^4/well and incubated for 24 h before treatment. Primary astrocytes and microglia were obtained and cultured following a previously described protocol. In brief, the cerebral cortex was dissected, dissociated, and incubated with 0.25% trypsin and EDTA at 37 °C for 1 h. The tissue was then centrifuged, and the resulting pellet was washed with Hanks’ balanced salt solution (Invitrogen). The cells were plated on non-coated flasks and incubated under standard conditions for a minimum of 7 days. Subsequently, each type of glial cell was isolated to obtain pure cultures. To achieve this, the glial cells in the culture flasks were agitated on an orbital shaker for 4 h at 240 rpm and 37 °C. […]
To determine the inflammatory state, glial cells subcultured in 96-well plates were exposed to lipopolysaccharide (LPS, 10 μg/mL, Sigma). […] After 24 h in culture, nitrite production was evaluated.
Following the designated treatments, 100 μL of the cell culture supernatant was mixed with an equal volume of Griess reagent (consisting of 1% sulfanylamide and 0.1% naphthyl ethylene diamine in 5% phosphoric acid, sourced from Sigma-Aldrich, Madrid, Spain) at room temperature for 15 min. […] The absorbance of the mixture was measured at 492/540 nm using a microplate reader from Thermofisher (Madrid, Spain). […]
Figure 5 Role of I2-IR ligands in an in vitro model of neuroinflammation. Nitrite production in the supernatant of glial cells was assessed using the Griess reaction after a 24 h exposure to lipopolysaccharide (LPS, 10 μg/mL) in the presence of the indicated I2-IR ligands at a concentration of 1 μM. […]

[2] = tested on: HT-22 hippocampal cells; test: Glutamate-induced damage in HT-22 cells (MTT viability, Griess nitrite); format: cell-based, mouse; conditions: HT-22, 10 mM glutamate; for neuroprotection (cell viability, MTT): 1 h pretreatment, LSL33 2 μM, LSL34 and LSL60101 1 μM; for nitrite production: culture supernatant
Description: (§1) In the study of neurotoxicity associated with AD, the HT22 mouse hippocampal neuronal cell line has been recognized as an effective cell model. HT22 cells were purchased from Merck-Sigma-Aldrich (SCC12, Madrid, Spain) and cultured in DMEM-F12 (Gibco, Fisher Scientific, Madrid, Spain) supplemented with foetal bovine serum (FBS, 10%) and 1% penicillin/streptomycin under standard conditions (37 °C, 5% CO2). The human dopaminergic cell line SH-SY5Y, in turn, has been widely used as an in vitro model to study the pathogenesis of PD associated with dopaminergic degeneration. Cells, acquired from the American Type Culture Collection (ATCC, Rockville, MD, USA, Ref.CRL-2266), were grown in RPMI medium (Gibco) supplemented with glutamine (2 mM), 10% FBS, and 1% penicillin/streptomycin under standard conditions. Semiconfluent cells (90%) were seeded on 96-well plates at 3 × 10^4 per well and incubated for 24 h before treatment.
(§2) Neuronal cultures, HT-22 and SH-SY5Y, seeded on 96-well plates were treated with LSL33, LSL34, and LSL60101 for 24 h, and viability was assessed using the MTT assay. […] Then, cultures were treated for 1h with LSL33 at 2 μM and LSL34 and LSL60101 at 1 μM. This dose was chosen based on previous studies. Subsequently, HT-22 cultures were exposed to glutamate (10 mM, Merck-Sigma), while SH-SY5Y cultures received 6-hydroxydopamine (6-OHDA, 35 μM, Merck-Sigma). The cells were then incubated for a minimum of 16 h. Finally, the cellular viability and nitrite production of the cultures were assessed.
(§3) The assessment of cell viability was conducted using the 3-(4,5-dimethylthiazol-2-yl)-5-(3-carboxymethoxyphenyl)-2-(4-sulfophenyl)-2H-tetrazolium (MTT) assay, following the instructions provided by the manufacturer (Roche Diagnostic, Darmstadt, Germany). Briefly, after exposure to glutamate or 6-OHDA, the cell culture medium was replaced with 100 μL of fresh culture medium containing MTT solution (0.5 mg/mL) and incubated for 1 h. The medium was then removed, and the resulting formazan crystals were dissolved in dimethylsulfoxide (DMSO, Merck-Sigma). The absorbance of the solution was measured at 595–650 nm using a spectrophotometer. The experiments were performed at least three times, and the results were expressed as a percentage of the control.
(§4) Following the designated treatments, 100 μL of the cell culture supernatant was mixed with an equal volume of Griess reagent (consisting of 1% sulfanylamide and 0.1% naphthyl ethylene diamine in 5% phosphoric acid, sourced from Sigma-Aldrich, Madrid, Spain) at room temperature for 15 min. To determine the nitrite concentrations, a standard solution of sodium nitrite was employed. The absorbance of the mixture was measured at 492/540 nm using a microplate reader from Thermofisher (Madrid, Spain). The experiments were repeated a minimum of three times.
(§5) Figure 4 In vitro screening of I2-IR ligands: Assessment of neuroprotective and anti-inflammatory effects HT-22 cells exposed to 10mM glutamate for at least 16 h Similarly, SH-SY5Y was damaged with 35 μM 6-OHDA (35 μM). Some cultures were pretreated with the I2-IR ligands. Cell viability was evaluated using the MTT assay, and nitrite production in the cell supernatant was quantified using the Griess reaction. The reported values represent the mean ± SD obtained from triplicate determinations repeated at least three times. Statistical analysis was performed: * p ≤ 0.05, ** p ≤ 0.01, *** p ≤ 0.001 (versus glutamate- or 6-OHDA-treated cultures); ^# p ≤ 0.05, ^### p ≤ 0.001 (versus idazoxan-treated cultures); ^& p ≤ 0.1, ^&&& p ≤ 0.001 (versus 2-BFI-treated cultures).

[3] = tested on: I2-IR; conditions: rat cerebral cortex, 1 µM yohimbine; >50% considered significant
[4] = tested on: SH-SY5Y dopaminergic neurons; test: 6-OHDA-induced damage in SH-SY5Y cells (MTT viability, Griess nitrite); format: cell-based, human; conditions: 35 μM 6-OHDA; for neuroprotection (cell viability, MTT): 1 h pretreatment, LSL33 2 μM, LSL34 and LSL60101 1 μM; for nitrite production: culture supernatant
Description: as §1, §2, §3, §4, §5

[5] = tested on: human dopaminergic cell line SH-SY5Y; test: Cytotoxicity of compounds alone, MTT assay, SH-SY5Y; format: cell-based; conditions: 24 h, escalating concentrations
Description: as §1, §2
The assessment of cell viability was conducted using the 3-(4,5-dimethylthiazol-2-yl)-5-(3-carboxymethoxyphenyl)-2-(4-sulfophenyl)-2H-tetrazolium (MTT) assay, following the instructions provided by the manufacturer (Roche Diagnostic, Darmstadt, Germany). […] The absorbance of the solution was measured at 595–650 nm using a spectrophotometer. The experiments were performed at least three times, and the results were expressed as a percentage of the control. […]

SMILES: Cl.c1ccc2sc(-c3ncc[nH]3)cc2c1 [LSL33, 2-(Benzo[b]thiophene-2-yl)-1H-imidazole hydrochloride]
- nitrite levels [1]: notable reduction in nitrite levels
- neuroprotection (cell viability, MTT) [2]: potent neuroprotective effects
- nitrite production [2]: significant attenuation of the increased nitrite production
- inhibition of [3H]idazoxan binding [3]: 84%
- neuroprotection (cell viability, MTT) [4]: potent neuroprotective effects
- nitrite production [4]: significant attenuation of the increased nitrite production
- cytotoxicity (MTT viability) [5]: None of the compounds tested were cytotoxic

SMILES: Cl.c1ccc2oc(-n3ccnc3)cc2c1 [LSL34, 1-(Benzofuran-2-yl)-1H-imidazole hydrochloride]
- nitrite levels [1]: notable reduction in nitrite levels
- neuroprotection (cell viability, MTT) [2]: potent neuroprotective effects
- nitrite production [2]: significant attenuation of the increased nitrite production
- inhibition of [3H]idazoxan binding [3]: 53%
- neuroprotection (cell viability, MTT) [4]: potent neuroprotective effects
- nitrite production [4]: significant attenuation of the increased nitrite production
- cytotoxicity (MTT viability) [5]: None of the compounds tested were cytotoxic

SMILES: c1ccc2oc(-c3ncc[nH]3)cc2c1 [LSL60101, reference compound]
- nitrite levels [1]: notable reduction in nitrite levels
- neuroprotection (cell viability, MTT) [2]: potent neuroprotective effects
- nitrite production [2]: significant attenuation of the increased nitrite production
- neuroprotection (cell viability, MTT) [4]: potent neuroprotective effects
- nitrite production [4]: significant attenuation of the increased nitrite production
- cytotoxicity (MTT viability) [5]: None of the compounds tested were cytotoxic

From publication PMC10610545, “Preclinical Evaluation of an Imidazole-Linked Heterocycle for Alzheimer’s Disease” (Pharmaceutics, 2023)
